Measured values reported in patent US20160106439A1, “PNEUMATIC TOURNIQUET” (BIONUMERIK PHARMACEUTICALS, INC., priority 2013, published 2016).
Entries after “also recorded” stand apart in the source; their conditions may differ. Read-outs that look alike come from different tables or passages of the source.

How the values were obtained:
[1] = biological target: recombinant human MET (Homo sapiens, UniProt P08581); assay: biochemical
Protocol: The substrate that was phosphorylated by the kinase, polyglutamate-tyrosine (PolyGT), was purchased from SignalChem (Cat. #P61-58, lot #R098-4).
All other reagents were purchased from Sigma Aldrich. A Tecan Ultra microplate reader with XFluor4 software (Tecan, V4.51) and RdrOle software (Tecan, V4.50) were used in this study.
MET phosphorylated the polyGT substrate using the ATP cofactor and produced ADP. […] For most assays, a stock of ATP (1 mM) and PolyGT (1 mg/mL) was used. […] The reactions, in microplate, were incubated for 60 minutes at 25° C. on a heat block. Following this 60 minute incubation, the kinase activity was evaluated using the ADP-Glo system from Promega that monitored ADP produced when MET phosphorylated the PolyGT substrate.
Kinase assays were run in triplicate or quadruplicate in microplates. Following this, the ADP-Glo detection system (Promega) was used to determine how much ADP had been produced. For 10 μL volume assays, to each microplate well containing 10 μL of kinase reaction was added ADP-Glo reagent (10 μL), plates were spun in a table top centrifuge (1000 rpm (123×g) for 1 minute) to ensure no reagent remained on the well walls, and then agitated for 1 minute to ensure optimal mixing. Plates were incubated at 25 C on a heat block for 40 minutes. Next, kinase detection reagent (20 μL) was added and, as above, centrifugation and agitation were repeated; plates were allowed to incubate at 25° C. on a heat block for 30 minutes. Following the incubation of the kinase detection reagent, plates were read on a Tecan Ultra microplate reader. The Tecan Ultra contained a built-in plate definition file for the whole area 96-well white Corning plates but a plate definition file for the half area 96-well Corning plates was created using the RdrOle component of the Tecan Ultra software.
Kinases vary in their ability to turnover ATP in vitro; therefore, the activity of the MET over a concentration range from 0.78 ng to 20 ng was evaluated in assay volumes of 10 μL. See, FIG. 7.
Therefore, each mole of polymer of 20,000 g/mole would contain approximately 28 moles of the glu-glu-glu-glu-tyr “subpolymer” in a 10 μL assay volume containing 1 μg of the polyGT substrate. […] This was a vast excess of possible tyrosine phosphorylation sites, ensuring that the substrate for phosphorylation was not rate limiting (assuming the higher mass range would produce an even larger excess of glu-glu-glu-glu-tyr “subpolymers”).
Data from MET assays run on the Tecan Ultra microplate spectrophotometer were collected in Microsoft Excel. Error calculations and graphical representations were performed in Microsoft Office Excel (Microsoft Corporation, Redmond, Wash., USA). Determination of IC25 and IC50 values were accomplished using Origin Lab software (OriginLab Corporation, Northampton, Mass., USA).

[2] = tested on: bovine brain microtubule protein (α-/β-tubulin); assay: Microtubule protein polymerization assay (OD350) and electron microscopy; type: biochemical
[3] = biological target: T1, thioredoxin (Homo sapiens, UniProt P10599); assay: LC-MS of thioredoxin incubations; type: binding; settings: ion at m/z 1288.3
T1 construct: purchased Sigma (SigmaAldrich); host or cells: E. coli

[4] = biological target: T2, Mesenchymal Epithelial Transition (MET) Factor Kinase (Homo sapiens, UniProt P08581); assay: MET kinase inhibition (summary Table 27); type: biochemical; settings: modification of non-active site cysteine(s)
T2 construct: the kinase domain of MET (residues 956-end) was used in these experiments; purchased SignalChem M52-18G-10; host or cells: Sf9 insect cells
T2 sequence (P08581 956-1390 limits assumed): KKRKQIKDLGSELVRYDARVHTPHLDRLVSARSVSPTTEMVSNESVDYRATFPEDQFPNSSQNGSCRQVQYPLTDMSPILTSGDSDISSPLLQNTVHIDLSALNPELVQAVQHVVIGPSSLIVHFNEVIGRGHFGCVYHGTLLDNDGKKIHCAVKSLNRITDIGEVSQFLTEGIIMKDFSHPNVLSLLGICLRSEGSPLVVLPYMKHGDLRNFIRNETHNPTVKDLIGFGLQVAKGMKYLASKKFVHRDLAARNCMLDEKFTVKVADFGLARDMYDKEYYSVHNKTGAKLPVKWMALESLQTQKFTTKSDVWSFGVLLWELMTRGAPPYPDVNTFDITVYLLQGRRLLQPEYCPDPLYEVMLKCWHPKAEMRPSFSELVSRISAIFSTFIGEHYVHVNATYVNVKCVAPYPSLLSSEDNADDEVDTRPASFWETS

[5] = biological target: γ-Glutamyltranspeptidase (Homo sapiens, UniProt P19440); assay: γ-glutamyltranspeptidase enzyme activity (summary Table 27); type: biochemical
Sequence of γ-Glutamyltranspeptidase (P19440 whole entry): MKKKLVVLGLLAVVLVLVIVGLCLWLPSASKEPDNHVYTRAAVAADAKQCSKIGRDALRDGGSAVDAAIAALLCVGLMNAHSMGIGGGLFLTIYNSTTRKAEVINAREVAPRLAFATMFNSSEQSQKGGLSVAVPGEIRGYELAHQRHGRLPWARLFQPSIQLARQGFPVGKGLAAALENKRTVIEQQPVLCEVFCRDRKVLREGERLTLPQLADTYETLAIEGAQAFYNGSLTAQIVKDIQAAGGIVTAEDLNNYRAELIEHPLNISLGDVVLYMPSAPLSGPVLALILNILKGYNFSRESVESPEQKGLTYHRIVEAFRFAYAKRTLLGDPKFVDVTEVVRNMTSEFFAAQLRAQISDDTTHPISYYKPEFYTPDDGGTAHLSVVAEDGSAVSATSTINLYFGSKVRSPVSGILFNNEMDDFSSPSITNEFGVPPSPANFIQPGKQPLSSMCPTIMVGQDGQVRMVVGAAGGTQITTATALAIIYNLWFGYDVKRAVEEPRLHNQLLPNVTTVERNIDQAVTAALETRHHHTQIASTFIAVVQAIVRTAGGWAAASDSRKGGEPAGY

[6] = biological target: WT EGFR kinase (Homo sapiens, UniProt P00533)
Sequence of WT EGFR kinase (P00533 25-1210): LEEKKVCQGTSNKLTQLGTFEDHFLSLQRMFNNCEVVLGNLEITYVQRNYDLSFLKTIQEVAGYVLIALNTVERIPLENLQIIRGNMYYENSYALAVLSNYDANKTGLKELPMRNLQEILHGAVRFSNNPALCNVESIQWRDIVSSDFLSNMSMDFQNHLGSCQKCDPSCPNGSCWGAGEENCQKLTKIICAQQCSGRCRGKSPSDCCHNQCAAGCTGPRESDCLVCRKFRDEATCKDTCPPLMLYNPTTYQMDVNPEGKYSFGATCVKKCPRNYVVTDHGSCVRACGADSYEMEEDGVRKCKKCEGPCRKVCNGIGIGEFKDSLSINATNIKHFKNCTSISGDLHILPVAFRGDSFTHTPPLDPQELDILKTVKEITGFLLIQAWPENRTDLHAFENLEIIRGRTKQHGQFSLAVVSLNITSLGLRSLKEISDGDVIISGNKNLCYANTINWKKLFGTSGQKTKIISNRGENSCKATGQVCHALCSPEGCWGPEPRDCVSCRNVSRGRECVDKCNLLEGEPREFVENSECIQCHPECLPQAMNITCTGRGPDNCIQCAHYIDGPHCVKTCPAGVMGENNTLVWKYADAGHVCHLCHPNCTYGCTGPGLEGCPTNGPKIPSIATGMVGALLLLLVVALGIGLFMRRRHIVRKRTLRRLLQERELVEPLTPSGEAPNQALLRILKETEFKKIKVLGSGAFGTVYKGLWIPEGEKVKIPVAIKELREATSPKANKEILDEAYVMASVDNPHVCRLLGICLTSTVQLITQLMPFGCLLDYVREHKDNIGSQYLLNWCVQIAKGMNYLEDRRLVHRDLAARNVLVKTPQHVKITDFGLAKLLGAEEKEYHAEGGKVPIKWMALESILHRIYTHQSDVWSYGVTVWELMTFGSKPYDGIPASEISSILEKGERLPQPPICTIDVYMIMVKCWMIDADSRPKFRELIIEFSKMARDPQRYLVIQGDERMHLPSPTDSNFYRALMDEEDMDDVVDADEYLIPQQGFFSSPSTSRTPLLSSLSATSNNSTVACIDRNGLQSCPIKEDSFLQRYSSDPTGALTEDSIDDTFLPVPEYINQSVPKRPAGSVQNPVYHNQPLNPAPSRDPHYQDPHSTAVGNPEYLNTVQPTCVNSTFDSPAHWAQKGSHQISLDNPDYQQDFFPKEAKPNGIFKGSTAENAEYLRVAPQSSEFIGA

[7] = biological target: T3, Recombinant human Trx (Homo sapiens, UniProt P10599); assay: Native PAGE of Trx incubated with Tavocept; type: binding; parameters: purchased Sigma (SigmaAldrich); host or cells: E. coli; settings: Tavocept 10 mM, 37° C., 0-48 hours
T3 sequence (P10599 1-105): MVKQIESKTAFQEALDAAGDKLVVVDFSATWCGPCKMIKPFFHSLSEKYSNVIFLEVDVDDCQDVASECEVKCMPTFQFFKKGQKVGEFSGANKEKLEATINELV
Protocol: (§1) Recombinant human Trx (1.5 mg, SigmaAldrich) was reduced using a vast excess of DTT (50 mM) in Tris buffer (100 mM, pH 8.0) at 37° C. for 50 minutes. […] (final reactions volumes were approximately 160 μL). At time selected times (0-48 hours), aliquots were removed and subjected to TrisGlycine Native or TrisGlycine SDS PAGE analysis. Gels were fixed in acetic acid/methanol and stained with Coomassie R-250.
as §1, with “mg)” for “mg, SigmaAldrich)”, “incubation reaction” for “reactions”

Sequence of recombinant human MET (P08581 956-1390 limits assumed): as the sequence (P08581 956-1390 limits assumed) above

O=S(=O)([O-])CCSSCCS(=O)(=O)[O-].[Na+].[Na+] [Tavocept, disodium 2,2′-dithio-bis-ethane sulfonate]
greater inhibition of MET than Staurosporine alone ([1]; 10 μM ATP, MET 0.1 ng/μL, 5 mM Tavocept + 100 nM Staurosporine): 22% | greater inhibition of MET than Staurosporine alone ([1]; 10 μM ATP, MET 0.1 ng/μL, 5 mM Tavocept + 300 nM Staurosporine): 8% | greater inhibition of MET than Staurosporine alone ([1]; 10 μM ATP, MET 0.1 ng/μL, 10 mM Tavocept + 100 nM Staurosporine): 23% | greater inhibition of MET than Staurosporine alone ([1]; 10 μM ATP, MET 0.1 ng/μL, 10 mM Tavocept + 300 nM Staurosporine): 8% | IC50 ([1]; IC50, MET 2.5 ng/μL, ATP 100 μM): > 40 mM | IC50 ([1]; IC50 on MET, 10 μM ATP, 0.1 ng/μL MET): 15.2 ± 0.36 mM | IC50 ([1]; IC50 on MET, 10 μM ATP, 2.5 ng/μL MET, single experiment): 17.4 mM | IC50 ([1]; IC50 on MET, 100 μM ATP, 0.1 ng/μL MET, single experiment): 37.1 mM | IC50 ([1]; IC50 on MET, 100 μM ATP, 2.5 ng/μL MET): > 40 mM | inhibition at 5000 µM ([1]; read-out: greater inhibition of MET than Crizotinib alone, 10 μM ATP, MET 0.1 ng/μL, 5 mM Tavocept + 20 nM Crizotinib): 10% | inhibition at 5000 µM ([1]; read-out: greater inhibition of MET than Crizotinib alone, 10 μM ATP, MET 0.1 ng/μL, 5 mM Tavocept + 40 nM Crizotinib): 6% | inhibition at 10000 µM ([1]; read-out: greater inhibition of MET than Crizotinib alone, 10 μM ATP, MET 0.1 ng/μL, 10 mM Tavocept + 20 nM Crizotinib): 16% | inhibition at 10000 µM ([1]; read-out: greater inhibition of MET than Crizotinib alone, 10 μM ATP, MET 0.1 ng/μL, 10 mM Tavocept + 40 nM Crizotinib): 11% | inhibition at 5000 µM ([1]; read-out: greater inhibition of MET than Crizotinib alone, 100 μM ATP, MET 2.5 ng/μL, 5 mM Tavocept + 45 nM Crizotinib): 15% | inhibition at 5000 µM ([1]; read-out: greater inhibition of MET than Crizotinib alone, 100 μM ATP, MET 2.5 ng/μL, 5 mM Tavocept + 90 nM Crizotinib): 10% | inhibition at 10000 µM ([1]; read-out: greater inhibition of MET than Crizotinib alone, 100 μM ATP, MET 2.5 ng/μL, 10 mM Tavocept + 45 nM Crizotinib): 14% | inhibition at 10000 µM ([1]; read-out: greater inhibition of MET than Crizotinib alone, 100 μM ATP, MET 2.5 ng/μL, 10 mM Tavocept + 90 nM Crizotinib): 10% | inhibition at 5000 µM ([1]; read-out: greater inhibition of MET than Staurosporine alone, 10 μM ATP, MET 0.1 ng/μL, 5 mM Tavocept + 100 nM Staurosporine): 22% | inhibition at 5000 µM ([1]; read-out: greater inhibition of MET than Staurosporine alone, 10 μM ATP, MET 0.1 ng/μL, 5 mM Tavocept + 300 nM Staurosporine): 8% | inhibition at 10000 µM ([1]; read-out: greater inhibition of MET than Staurosporine alone, 10 μM ATP, MET 0.1 ng/μL, 10 mM Tavocept + 100 nM Staurosporine): 23% | inhibition at 10000 µM ([1]; read-out: greater inhibition of MET than Staurosporine alone, 10 μM ATP, MET 0.1 ng/μL, 10 mM Tavocept + 300 nM Staurosporine): 8% | effect on paclitaxel-induced hyperpolymerization of MTP [2]: normalizes | inhibition of paclitaxel promoted microtubule protein polymerization ([2]; 12 mM Tavocept, paclitaxel 10 μM): approximately 50% | Tavocept concentration giving final polymerization equal to GTP control ([2]; MTP exposed to paclitaxel): ≥ 6 mM | Tavocept concentration inhibiting paclitaxel (10 μM) promoted hyperpolymerization ([2]; paclitaxel 10 μM): > 1 mM | Tavocept concentration giving net polymerization equivalent to GTP/MgCl2 only control ([2]; paclitaxel/GTP/MgCl2 10 μM/1 mM/1 mM): 6 to 8 mM | microtubules visible on electron microscopy grids ([2]; preincubated 20 minutes on ice, with and without paclitaxel, qualitative): reduction in the abundance of microtubules | effect on GTP-catalyzed microtubule protein polymerization ([2]; preincubated with microtubule protein on ice 20 minutes, 37° C.): dose-dependent inhibitory effect; also recorded: inhibit GTP-catalyzed polymerization; also recorded: concentration dependent manner | mesna adduct on thioredoxin fragment CMPTFQFFK [3]: Cys73-mesna adduct | Effect on MET [4]: resulting in enzyme inhibition (MET). | Effect on γ-glutamyltranspeptidase enzyme activity [5]: heteroconjugates can inhibit γ-glutamyl- | inhibition [6]: 9% | Tris-glycine native gel electrophoresis profile of Trx [7]: altered Tris-glycine native gel electrophoresis profile
